In the supplement of paper PMC11451515:

Tested on: NOMO1
Experiment: cell viability relative to DMSO control; higher = less cytotoxic
Details: 48 h
How it was run: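 Viability, reported as a per-plate percentage of DMSO wells with cell-free wells as background, came from CellTiter-Glo One luminescence. Reading took place after 48 h at 37°C. Before that, NOMO1 or SEM (500 cells/well) or P12-Ichikawa (1000 cells/well) leukemia cells, adapted for at least four passages in each medium, were seeded in 1536-well plates (5 μl) and pin-dosed with library compounds in DMSO, 47 μM to 0.79 nM over 11 threefold points.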

[1] = HPLM + 10% dialyzed FBS, 0.000781 µM
[2] = HPLM + 10% dialyzed FBS, 0.00234 µM
[3] = HPLM + 10% dialyzed FBS, 0.00702 µM
[4] = HPLM + 10% dialyzed FBS, 0.0211 µM
[5] = HPLM + 10% dialyzed FBS, 0.0632 µM
[6] = HPLM + 10% dialyzed FBS, 0.19 µM
[7] = HPLM + 10% dialyzed FBS, 0.569 µM
[8] = HPLM + 10% dialyzed FBS, 1.71 µM
[9] = HPLM + 10% dialyzed FBS, 5.12 µM
[10] = HPLM + 10% dialyzed FBS, 15.4 µM
[11] = HPLM + 10% dialyzed FBS, 46.1 µM
[12] = RPMI 5 mM glucose + 10% FBS, 0.000781 µM
[13] = RPMI 5 mM glucose + 10% FBS, 0.00234 µM
[14] = RPMI 5 mM glucose + 10% FBS, 0.00702 µM
[15] = RPMI 5 mM glucose + 10% FBS, 0.0211 µM
[16] = RPMI 5 mM glucose + 10% FBS, 0.0632 µM
[17] = RPMI 5 mM glucose + 10% FBS, 0.19 µM
[18] = RPMI 5 mM glucose + 10% FBS, 0.569 µM
[19] = RPMI 5 mM glucose + 10% FBS, 1.71 µM
[20] = RPMI 5 mM glucose + 10% FBS, 5.12 µM
[21] = RPMI 5 mM glucose + 10% FBS, 15.4 µM
[22] = RPMI 5 mM glucose + 10% FBS, 46.1 µM
[23] = RPMI 5 mM glucose + 10% dialyzed FBS, 0.000781 µM
[24] = RPMI 5 mM glucose + 10% dialyzed FBS, 0.00234 µM
[25] = RPMI 5 mM glucose + 10% dialyzed FBS, 0.00702 µM
[26] = RPMI 5 mM glucose + 10% dialyzed FBS, 0.0211 µM
[27] = RPMI 5 mM glucose + 10% dialyzed FBS, 0.0632 µM
[28] = RPMI 5 mM glucose + 10% dialyzed FBS, 0.19 µM
[29] = RPMI 5 mM glucose + 10% dialyzed FBS, 0.569 µM
[30] = RPMI 5 mM glucose + 10% dialyzed FBS, 1.71 µM
[31] = RPMI 5 mM glucose + 10% dialyzed FBS, 5.12 µM
[32] = RPMI 5 mM glucose + 10% dialyzed FBS, 15.4 µM
[33] = RPMI 5 mM glucose + 10% dialyzed FBS, 46.1 µM

Compound	cell viability [1]	cell viability [2]	cell viability [3]	cell viability [4]	cell viability [5]	cell viability [6]	cell viability [7]	cell viability [8]	cell viability [9]	cell viability [10]	cell viability [11]	cell viability [12]	cell viability [13]	cell viability [14]	cell viability [15]	cell viability [16]	cell viability [17]	cell viability [18]	cell viability [19]	cell viability [20]	cell viability [21]	cell viability [22]	cell viability [23]	cell viability [24]	cell viability [25]	cell viability [26]	cell viability [27]	cell viability [28]	cell viability [29]	cell viability [30]	cell viability [31]	cell viability [32]	cell viability [33]
O=C(O)C1(Cc2cccc(Nc3nccs3)n2)CCC(Oc2cccc(Cl)c2F)CC1 (stereo not drawn)	98.9%	116%	117%	108%	104%	116%	120%	69.6%	45.3%	34.2%	35.5%	110%	96.2%	99.5%	91.9%	106%	102%	96.9%	74.1%	43.7%	31.8%	23.2%	107%	104%	98.8%	104%	105%	105%	102%	72%	50.4%	34.4%	34%
O=c1[nH]c(=O)n([C@H]2C[C@H](O)[C@@H](CO)O2)cc1/C=C/Br	89.1%	108%	120%	108%	123%	108%	96.2%	96.5%	79.4%	72.4%	55.4%	93.9%	111%	97.7%	106%	114%	101%	113%	117%	106%	120%	110%	123%	110%	102%	122%	119%	114%	107%	121%	134%	130%	105%
CC1(C)O[C@@H]2C[C@H]3[C@@H]4C[C@H](F)C5=CC(=O)C=C[C@]5(C)[C@@]4(F)[C@@H](O)C[C@]3(C)[C@]2(C(=O)CO)O1	105%	112%	121%	122%	121%	101%	101%	118%	112%	108%	94%	115%	101%	108%	108%	112%	114%	106%	102%	104%	97.9%	91.7%	109%	109%	98.3%	114%	112%	102%	96.7%	102%	110%	97.8%	86.5%
O=C1[C@H](Cc2ccc(O)cc2)N2C(=O)CCN(C(=O)NCc3ccccc3)[C@H]2CN1Cc1cccc2ccccc12	86.9%	82.6%	88.9%	97.3%	92.1%	78.6%	86.3%	85%	74.9%	18.3%	74%	81.7%	78.7%	86.9%	81%	83.1%	73.9%	83.7%	73.5%	73.1%	10.6%	81.1%	76.7%	89.9%	89.5%	104%	92.5%	89.5%	84.2%	82.7%	79.2%	13.7%	82.8%
Cc1c(C)n(Cc2ccc(-c3ccccc3C(=O)O)cc2)c2ccc(C(=O)N[C@@H](C)c3ccc([N+](=O)[O-])cc3)cc12	92.6%	107%	106%	103%	115%	116%	102%	86.8%	86%	32.2%	35.1%	118%	107%	111%	126%	105%	112%	124%	101%	101%	18.7%	12.3%	108%	121%	104%	109%	114%	107%	125%	106%	111%	19.2%	16.2%
C[N]1C=C(C=N1)C2=C3\C=N/NC(=O)C4=C3C(=CC(=C4)NC(=O)[C@H](N)C5CCCCC5)[NH]2	99.8%	111%	97.7%	91.1%	104%	101%	91.6%	78.3%	72.6%	35.7%	36.6%	95.1%	97.2%	93.5%	87%	100%	97.9%	84.3%	86.4%	80.2%	26%	29.1%	101%	90.4%	105%	89.7%	90.7%	87%	95.4%	94.1%	60.3%	20.5%	29%
OC[C@@H](O)[C@@H](O)[C@H](O)[C@@H](O)CO	96.4%	116%	129%	133%	131%	131%	130%	132%	129%	123%	135%	106%	114%	108%	111%	130%	109%	107%	110%	114%	112%	114%	102%	112%	99.5%	111%	113%	137%	122%	108%	135%	127%	131%
CC(C)OC(=O)/C1=C/N(CC(C)(C)C2=C1[NH]C3=CC=CC=C23)C(=O)C4=CC=C(F)C(=C4)F	86.3%	80.4%	86%	91.8%	81.3%	89.8%	98.3%	98%	89.9%	85.6%	91.2%	72.7%	78.4%	79.7%	80.8%	89%	79.4%	84.3%	76.4%	82.7%	78.2%	83.5%	74.5%	74.8%	70.6%	70.8%	69.4%	70.6%	66.6%	82%	80.5%	79.1%	72.5%
CCCCC(=O)O[C@]1(C(=O)CO)[C@H](C)C[C@H]2[C@@H]3CCC4=CC(=O)C=C[C@]4(C)[C@@]3(F)[C@@H](O)C[C@@]21C	122%	129%	124%	135%	131%	124%	127%	122%	123%	123%	116%																						
COc1cc(F)c(F)c(Nc2ccc(I)cc2F)c1N[S+](=O)([O-])C1(C[C@H](O)CO)CC1	111%	119%	117%	113%	116%	113%	101%	113%	99.3%	91.8%	57%	104%	95.3%	94.9%	99.4%	99.5%	102%	92.5%	111%	93.2%	87.9%	86.5%	112%	110%	109%	115%	108%	106%	110%	122%	106%	88.8%	71.9%
C[C@]12CCC(=O)C=C1CC[C@@H]1[C@@H]2[C@@H](O)C[C@@]2(C)[C@H]1CC[C@]2(O)C(=O)CO	99%	109%	121%	127%	117%	125%	120%	115%	102%	121%	109%	110%	98.3%	108%	112%	100%	129%	129%	111%	111%	105%	120%	119%	111%	106%	118%	116%	113%	130%	125%	118%	116%	127%
COC\1=C(/OC)C(=O)\C(=C(C)/C1=O)CCCCCCCCCCO	97.4%	132%	118%	148%	114%	134%	153%	154%	148%	122%	61.6%																						
CN[C@H]1CCC2=CC(=C(OC)C(=C2C/3=C/C=C(OC)\C(=O)/C=C13)OC)OC	119%	96%	75.2%	30.1%	32.9%	38.4%	43.5%	40.9%	31.4%	33.9%	25.8%	120%	109%	90.7%	22.8%	22.3%	24.5%	25.4%	22.4%	21.1%	17.1%	10.4%	108%	97.1%	102%	23.5%	31.9%	28.3%	27.9%	28.7%	23.1%	21.9%	14.3%
Nc1ncnc2c1ncn2[C@@H]1O[C@@H](CO)[C@H](O)[C@@H]1O	94.2%	125%	117%	140%	142%	134%	144%	156%	139%	140%	136%												122%	121%	122%	127%	135%	136%	133%	135%	127%	155%	137%
C[C@](Cc1c[nH]c2ccccc12)(NC(=O)OC1C2CC3CC(C2)CC1C3)C(=O)NC[C@H](NC(=O)CCC(=O)O)c1ccccc1 (stereo partly drawn)	123%	94%	130%	135%	148%	142%	134%	145%	157%	154%	141%	114%	128%	120%	126%	120%	127%	125%	126%	151%	153%	147%	106%	123%	120%	132%	132%	133%	153%	129%	139%	147%	153%
CC1CNc2c(cccc2[S+](=O)([O-])N[C@@H](CCCNC(=N)N)C(=O)N2CC[C@@H](C)C[C@@H]2C(=O)O)C1 (stereo partly drawn)	117%	101%	106%	106%	104%	94.9%	106%	114%	101%	112%	123%	98.3%	87.9%	99.4%	96.9%	103%	98.2%	100%	93.3%	96.6%	100%	95.1%	86.3%	87.7%	101%	107%	97.6%	94.3%	101%	110%	99.6%	111%	102%
